Test results: patent publication US20260357349A1, “METHODS OF IDENTIFYING AND TREATING CANCER” (Agency for Science, Technology and Research, priority 2022, published 2026)
Entries after “also recorded” stand apart in the source; their conditions may differ.

Assays:
[1] = system: NF-κB target genes (786-O cells); test: RT-qPCR of NF-κB target genes after NF-κB inhibitor, 786-O; format: cell-based, human; conditions: 0.006 μM bortezomib or 0.6 µM Bay 11-7085, 24 hours
Protocol: (§1) Colony formation of parental (WT) or PBRM1 knockout (KO) 786-O cells expressing shRNA against non-targeting control (NC), RELA, or NFKB1 cultured with a) 10% or b) 2% serum. c) Gene expression changes of NF-κB target genes in 786-O cells treated with 0.006 μM bortezomib (BTZ) or 0.6 µM Bay 11-7085 for 24 hours (n=3 technical replicates). * p-value<0.05 (two-sided t-test). […] A positive log fold change refers to gain in bortezomib treatment over DMSO. g) Colony formation of 786-O isogenic cells and h) NCC432 isogenic cells treated with bortezomib for a week. Tumor formation of isogenic 786-O cells (i) and NCC432 cells (j) treated with PBS control or 0.5 mg/kg bortezomib (BTZ) in NSG mice. (n=10 tumors per group for 786-O, and n=16 tumors for NCC432 PBS EV group and 12 tumors for NCC432 PBS PBRM1 group and 14 tumors for both NCC432 EV and PBRM1 BTZ groups). Data are presented as mean values+/−SEM. k) Model for the study.

786-O cells = test: Colony formation, 786-O isogenic cells; format: cell-based, human; conditions: 786-O with and without PBRM1, vs DMSO
Protocol: as §1
Data are presented as median+/−25%. […] Data are presented as mean values+/−SD. e) Tornado plots of RELA and SMARCA4 ChIP-seq signals in parental 786-0 or PBRM1-KO 786-O cells treated with DMSO or 0.005 μM bortezomib for 9 hours. f) Kaplan-Meier curves of NSG mice bearing 786-O isogenic cells treated with PBRM1 control or 0.5 mg/kg bortezomib (WT: n=10 PBS arm, median survival=39 days; n=10 bortezomib arm, median survival=52 days, HR=4.1, p=3E-6, log rank test; KO: n=10 PBS arm, median survival=35 days, n=10 bortezomib arm, median survival=66 days, HR=4.1, p=3E-6, log rank test). g) Kaplan-Meier curves of NSG mice bearing NCC432 isogenic cells treated with PBRM1 control or 0.5 mg/kg bortezomib (EV: n=16 PBS arm, median survival=42 days; n=14 bortezomib arm, median survival=49 days, HR=2.5, p=0.0009, log rank test; PBRM1: n=12 PBS arm, median survival=55 days; n=14 bortezomib arm, median survival=58 days, HR=1.2, p=0.5, log rank test). h) 786-O PBRM1 WT or KO cells were screened against the high-specific SGC epigenetic probe collection and cell viability was measured by colony formation after 1 week of treatment relative to DMSO control. […]

IκBα / NF-κB = conditions: cited from earlier work
RCC = conditions: best responder to the combined therapy; cited from earlier work
[2] = system: NF-κB target genes (786-O cells); test: RT-qPCR of NF-κB target genes after SMARCA2/4 ATPase inhibitor, 786-O; format: cell-based, human
[3] = system: NF-κB target genes (NCC432 cells); test: RT-qPCR of NF-κB target genes after SMARCA2/4 ATPase inhibitor, NCC432; format: cell-based, human
Excerpt: Data are presented as mean values+/−SD. b) Colony formation of 786-O cells expressing shRNA against non-targeting control (NTC) or ARID2. c) Colony formation of 786-O cells expressing shRNA against non-targeting control (NTC) or SMARCA4. d) Immunoblotting and e) colony formation of NCC432 cells expressing shRNA against non-targeting control (NTC) or ARID2 (n=3 biological replicates). Data are presented as mean values+/−SD. * p<0.05, ** p<0.01 (two-sided t-test). f) Immunoblotting and g) colony formation of NCC432 cells expressing shRNA against non-targeting control (NTC) or SMARCA4 (n=4 biological replicates). Data are presented as mean values+/−SD. *** p<0.001, **** p<0.0001 (two-sided t-test). In vivo tumor formation in h) 786-O parental cells and i) 786-0 PBRM1 KO cells expressing shRNA against non-targeting control (NTC), ARID2 (clone 1) or SMARCA4 (clone 2) (n=10 tumors per group). Data are presented as mean values+/−SEM for tumor growth and mean values+/−SD for tumor weight. **** p<0.0001 (two-sided t-test).
It was previously shown that inhibiting the SMARCA4 ATPAse subunit abolished chromatin accessibility and binding of SMARCA4-dependent transcription factors. To understand whether the activation of pathway requires the ATPase activity of SMARCA4, 786-O and NCC432 cells were treated with SMARCA2/4 ATPase inhibitor. […]

[4] = system: NF-κB pathway (786-O cells); test: RNA-seq gene set enrichment of direct NF-κB targets after SMARCA2/4 ATPase inhibitor, 786-O; format: cell-based, human; conditions: 10 μM, 24 hours
Protocol: Data are presented as mean values+/−SD. b, c) 786-O parental and PBRM1 KO cells were treated with 10 μM of SMARCA2/4 ATPase inhibitor for 24 hours and transcriptomic changes were evaluated by RNA-seq (n=2 biological replicates). […] P values were calculated by Kolmogorov-Smirnov test and q value was adjusted for multiple hypotheses testing using gene permutation. d) 786-O cells expressing dox inducible shRNA against ARID2 were treated with 1 μg/ml doxycycline for 2 days and the gene expression of NF-κB targets were quantified by RT-qPCR (n=3 technical replicates representative of 2 biological replicates). Data are presented as mean values+/−SD. * p<0.05, ** p<0.01 (two-sided t-test). e) Single cell clones of either PBRM1 or ARID2 knockout were created in 769-P cells. […] P values were calculated by Kolmogorov-Smirnov test and q values were adjusted for multiple hypotheses testing using gene permutation. […]
Total RNA was extracted using the Qiagen RNeasy Mini kit. […] Sequencing was performed on an Illumina HiSeq4000 sequencer with the paired-end 150 bp read option.
RNA-Seq Pathway Analysis RNA-seq data were mapped to hg19 (h117d5) using STAR, with GENCODE annotation (gencode.v19.annotation.gtf) and recommended settings from STAR manual. Gene expression levels were quantified with STAR. […]

[5] = system: RELA occupancy at NF-κB target genes; test: ChIP-qPCR of RELA occupancy after SMARCA2/4 ATPase inhibitor, 786-O; format: cell-based, human; conditions: PB1-deficient setting, 24 hours
Protocol: For each protein of interest, approximately 2×10^7 cells were cross-linked with 1% formaldehyde for 10 min at room temperature, and stopped by adding glycine to a final concentration of 0.2M. Chromatin was extracted and sonicated to ~500 bp (Vibra cell, SONICS). The following antibodies were used for chromatin immunoprecipitation: PBRM1 (Bethyl A301-591A Lot: 3-4), SMARCA4 (AbCAM ab110641 Lot: GR3208604-8), ARID2 (Bethyl A302-230A Lot: 2), BRD7 (Bethyl A302-304A Lot: 1), ARID1A (Santa Cruz sc-32761 Lot: #H2217), SMARCC1 (Santa Cruz sc-32763 Lot: #K1617), NFkB p65/RELA (Santa Cruz sc-372 Lot: #J1915; Diagenode C15310256, Lot: 24468; Invitrogen 51-0500, Lot: WG331314), BRD9 (Bethyl A303-781A, Lot2), RNA POL II (Merck Millipore 05-623 Lot: 2958013), H3K27ac (AbCAM ab4729-100 Lot: 741806), H3K14ac (AbCAM ab52946 Lot: GR3252548-5), H3K4me3 (Merck Millipore 07-473 Lot: 2930138), H3K4me1 (AbCAM ab8895 Lot: GR312093-1), H3K27me3 (Millipore 07-449 Lot: JBC1924326), H3K9me3 (Millipore 07-442 Lot: DAM1411287). The total volume of immunoprecipitation was 2 ml and the amount of antibody used was 20 μg. The input DNA was precleared with protein G Dynabeads (LifeTechnologies) for 2 hours at 4 °C and then incubated with antibodies overnight at 4 °C. […] Each library was sequenced to an average depth of 30-50 million reads on HiSeq2000, HiSeq4000 or Novaseq 6000.

In the case of `CC(C)(C)c1ccc(S(=O)(=O)/C=C/C#N)cc1` [Bay 11-7085], the “suppressing the expression of NF-κB target genes” value [1] is given as “not Bay 11-7085 was effective”, the reducing colony formation (786-O cells) is given as “not Bay 11-7085 was effective” and the “effect on IκBα phosphorylation” value (IκBα / NF-κB; TNFα-induced vs basal) is given as “inhibits TNFα-induced but not basal IκBα phosphorylation”. For the same compound, the “effect on nuclear translocation of NF-κB” value (IκBα / NF-κB; TNFα-induced) was “prevents TNFα-induced nuclear translocation of NF-κB”.

For bevacizumab: bevacizumab therapy, the prior therapy outcome (RCC) is given as “failed”.

With `O=C(Nc1cc(C(F)F)ns1)Nc1cc(F)ncc1CO` [SMARCA2/4 ATPase inhibitor] the “downregulation of BCL2A1 and TNF, PB1-deficient vs proficient” value ([2]; 786-O) was “greater downregulation in the PB1-deficient setting compared to the proficient setting”, the “downregulation of NF-κB target genes” value ([2]; 786-O parental and PB1 KO, 10, 20 and 50 μM, 3 days) was “dose-dependent downregulation of NF-κB target genes” and the “sensitivity of PDLIM4 and APOL3 expression” value ([2]; both PB1-proficient and deficient setting) was “exquisitely sensitive”. The “downregulation of BCL2A1 and TNF, PB1-deficient vs proficient” value ([3]; NCC432) was “greater downregulation in the PB1-deficient setting compared to the proficient setting”, the “downregulation of NF-κB target genes” value ([3]; NCC432 empty vector or PBRM1, 3 days) was “dose-dependent downregulation of NF-κB target genes” and the “gene set enrichment of direct NF-κB targets, PB1-deficient vs parental” value [4] was “greater effect of NF-κB downregulation in PB1-deficient cells compared to parental 786-O cells; also recorded: greater downregulation of NF-κB pathway in PBRM1-deficient cells compared to parental 786-O cells”. For the same compound, the “regions probed with significantly decreased RELA occupancy” value [5] was 5/6.
